The nature of series [1]: Cytotoxicity against African green monkey Vero cells assessed as reduction in cell viability after 7 days by resazurin staining based analysis. In kind it is toxicity. To be noted: chlorocebus sabaeus, time 7 day.
For a further series, the system named is Yellow fever virus. In words: Antiviral activity against YFV infected in African green monkey Vero cells assessed as reduction in cytopathic effect by plaque reduction assay. In kind it is functional, organism-based. A general note: Damage to the host cells serves as the signal in cytopathic effect assays.
Series [2] is described as follows: Cytotoxicity against African green monkey Vero cells assessed as reduction in cell viability after 24 hrs by resazurin staining based analysis. It counts as toxicity. Conditions: chlorocebus sabaeus.
For series [3], the system named is West Nile virus. In words: Antiviral activity against WNV infected in African green monkey Vero cells assessed as reduction in cytopathic effect by plaque reduction assay. It counts as functional, organism-based.
Series [4] is described as follows: Cytotoxicity against porcine PEK cells assessed as reduction in cell viability after 24 hrs by resazurin staining based analysis. To be noted: pig. In kind it is toxicity, Sus scrofa.
A short description of series [5]: Cytotoxicity against porcine PEK cells assessed as reduction in cell viability after 7 days by resazurin staining based analysis. In kind it is toxicity, Sus scrofa. Conditions: pig, time 7 day. (In general: Resazurin is reduced to fluorescent resorufin, in cell work by metabolically active cells.)
Series [6] deals with Tick-borne encephalitis virus. In words: Antiviral activity against TBEV infected in porcine PEK cells assessed as reduction in cytopathic effect by plaque reduction assay. It counts as functional, organism-based.
Series [7] in a line: Cytotoxicity against human RD cells. It counts as toxicity, cell-based.
A further series relates to Enterovirus A71. Nature of the series: Antiviral activity against human EV71 BrCr infected human RD cells assessed as reduction in cytopathic effect pretreated with cells followed by viral infection and measured after 3 to 4 days post infection. It counts as functional, organism-based. To be noted: Enterovirus A.
The subject of series [8] is Tick-borne encephalitis virus. Nature of the series: Antiviral activity against TBEV infected in porcine PS cells assessed as inhibition of virus induced cytopathic effect pre-infected with virus followed by compound addition and measured after 3 to 4 days by microscope based analysis. In kind it is functional, organism-based.
Series [9] deals with Tick-borne encephalitis virus. Nature of the series: Antiviral activity against TBEV infected in porcine PS cells pretreated with cells followed by viral infection and measured after 3 days post infection by microscope based analysis. In kind it is functional, organism-based.
Series [10] concerns West Nile virus. In words: Antiviral activity against WNV infected in African green monkey Vero cells assessed as viral growth inhibition pre-infected with virus for 2 hrs followed by compound addition and measured 24 hrs post infection by time of addition assay. It counts as functional, organism-based. To be noted: time 22.0 hrs.
For series [11], the system named is West Nile virus. Nature of the series: Antiviral activity against WNV infected in African green monkey Vero cells assessed as viral growth inhibition measured after 24 hrs. It counts as functional, organism-based.
In series [12] the test system is West Nile virus. Nature of the series: Antiviral activity against WNV infected in African green monkey Vero cells assessed as viral growth inhibition pre-infected with virus for 2 hrs followed by compound addition and measured after compound washout at 5 hrs post infection. It counts as functional, organism-based. To be noted: time 3.0 hrs.
Series [13] relates to West Nile virus. In words: Antiviral activity against WNV infected in African green monkey Vero cells assessed as viral growth inhibition pre-infected with virus for 5 hrs followed by compound addition and measured 24 hrs post infection. In kind it is functional, organism-based. Conditions: time 19.0 hrs.
In series [14] the test system is West Nile virus. Nature of the series: Antiviral activity against WNV infected in African green monkey Vero cells assessed as viral growth inhibition pre-treated with compound for 2 hrs followed by viral infection and measured 24 hrs post infection. In kind it is functional, organism-based. To be noted: time 26.0 hrs.
Series [15] has as its system Tick-borne encephalitis virus. Nature of the series: Antiviral activity against TBEV infected in porcine PEK cells pre-infected for 1 hr followed by cell addition for 1 hrs and measured after 6 days. In kind it is functional, organism-based.
The test system of series [16] is West Nile virus. In words: Antiviral activity against WNV infected in African green monkey Vero cells. It counts as functional, organism-based.
The subject of series [17] is Tick-borne encephalitis virus. In words: Antiviral activity against TBEV infected in porcine PS cells assessed as r inhibition of virus induced cytopathic effect pretreated with cells for 24 hrs followed by viral infection for 24 hrs and measured after 72 hrs post infection. It counts as functional, organism-based.
In series [18] the test system is Tick-borne encephalitis virus. Nature of the series: Antiviral activity against TBEV infected in human A549 cells assessed as inhibition of virus induced cytopathic effect. In kind it is functional, organism-based.
Series [19] is described as follows: Selectivity index, ratio of CC50 for human A549 cells to EC50 for TBEV infected in human A549 cells. Conditions: read-out: Ratio CC50/EC50. It counts as toxicity, cell-based.
Series [20] relates to West Nile virus. In words: Antiviral activity against WNV NY99 infected in African green monkey Vero cells pretreated with cells for 16 hrs followed by viral infection for 1 hr and measured after 48 hrs by plaque assay. In kind it is functional, organism-based.
Series [21] relates to Tick-borne encephalitis virus. In words: Antiviral activity against TBEV infected in human A549 cells assessed as reduction in cytopathic effect pretreated with cells for 1 hr followed by viral infection and measured after 3 days. It counts as functional, organism-based.

From ChEMBL document CHEMBL5523668, “Elongation of N6-benzyladenosine scaffold via Pd-catalyzed C-C bond formation leads to derivatives with antiflaviviral activity” (Bioorg Med Chem, 2024) come the findings set out here.

SMILES strings stand for the structures. Activity calls are given as the source filed them. The rule behind the calls is not given here.

For `OC[C@H]1O[C@@H](n2cnc3c(NCc4ccc(-c5ccccc5C(F)(F)F)cc4)ncnc32)[C@H](O)[C@@H]1O`, the CC50 at 168 h in [1] was over 41 µM; in [5], over 50 µM. The EC50 with Yellow fever virus is 46 µM; with West Nile virus [3] it was 24 µM; in series [6], 17 µM. In addition, the 50% cytotoxic concentration (CC50) at 24 h in [2] and in [4] was over 50 µM in each case.
In the case of `OC[C@H]1O[C@@H](n2cnc3c(NCc4ccc(C#CC5CC5)cc4)ncnc32)[C@H](O)[C@@H]1O`, the CC50 at 168 h in series [1] and in series [5] was over 50 µM in each case. Further, the EC50 in the series with Yellow fever virus was over 50 µM; in the series on West Nile virus [3], 32 µM; in [6], over 50 µM.
Take `OC[C@H]1O[C@@H](n2cnc3c(NCc4c(F)cccc4F)ncnc32)[C@H](O)[C@@H]1O`: in series [7], the CC50 is over 245 µM. Also, in the series on Enterovirus A71, the EC50 is 0.21 µM.
As for `C[C@@]1(O)[C@H](O)[C@@H](CO)O[C@H]1n1cnc2c(N)ncnc21`, in series [8], the EC50 was 7.1 µM.
For the molecule `[N-]=[N+]=N[C@]1(CO)O[C@@H](n2ccc(N)nc2=O)[C@H](O)[C@@H]1O` [4'-AZIDOCYTIDINE], the EC50 in series [9] was 2.7 µM.
With `OC[C@H]1O[C@@H](n2cnc3c(NCc4ccc(C#CC5=CCCCC5)cc4)ncnc32)[C@H](O)[C@@H]1O`, the values for the CC50 at 168 h in [1] and in [5] were over 50 µM and 36.6 µM, respectively. The EC50 was determined as 24 µM with Yellow fever virus, 5 µM in the series with West Nile virus [3] and 10 µM in series [6]. Besides, the result in the series with West Nile virus [10] and in the series on West Nile virus [13] was Active. Moreover, the result in the series with West Nile virus [11], in the series with West Nile virus [12] and in the series with West Nile virus [14] was inactive.
With `Nc1onc(C(=O)OCC23CC4CC(CC(C4)C2)C3)c1CCc1ccccc1`, the CC50 at 168 h in series [1] and in [5] was over 100 µM each time. Besides, the EC50 in the series with Yellow fever virus amounted to 2.2 µM; in series [15], 1.8 µM; in the series with West Nile virus [16] it was 1.8 µM.
Consider `OC[C@H]1O[C@@H](n2cnc3c(NCc4cc(C(F)(F)F)cc(C(F)(F)F)c4)ncnc32)[C@H](O)[C@@H]1O`, for which the CC50 at 168 h in [1] and in [5] was over 50 µM in each case. The results for the EC50 (with Yellow fever virus; in the series with West Nile virus [3]; in series [6]) were over 50 µM, 16 µM and over 50 µM, respectively.
With `OC[C@H]1O[C@@H](n2cnc3c(NCc4ccc(-c5cccc(C(F)(F)F)c5)cc4)ncnc32)[C@H](O)[C@@H]1O`, the CC50 at 168 h in series [1] was over 50 µM; in [5], 36.7 µM. Also, the 50% effective concentration (EC50) was 31 µM in the series with Yellow fever virus, 6.8 µM in the series with West Nile virus [3] and 6 µM in series [6]. In addition, the outcome with West Nile virus [10] and with West Nile virus [13] was Active. In addition, the CC50 at 24 h in series [2] and in series [4] was over 50 µM in each case. In addition, the result with West Nile virus [11], in the series on West Nile virus [12] and in the series with West Nile virus [14] was inactive.
Turning to `Nc1ncnc2c1ncn2[C@@H]1O[C@H](CO)[C@@H](F)[C@H]1O`, the concentration giving a half-maximal response (EC50) in [17] came out at 1.6 µM.
As for `CCC(CC)COC(=O)[C@H](C)N[P@](=O)(OC[C@H]1O[C@@](C#N)(c2ccc3c(N)ncnn23)[C@H](O)[C@@H]1O)Oc1ccccc1` [REMDESIVIR], the concentration for a half-maximal effect (EC50) in series [18] (Tick-borne encephalitis virus, A549) stood at 2.1 µM; in [18] (a549), 3.5 µM. In addition, the selectivity ratio in series [19] was determined as 4.8.
On to `NC(=O)c1nc(F)cnc1O` [FAVIPIRAVIR], for which the CC50 at 168 h in series [1] was over 1000 µM. For the same molecule, the EC50 in the series on West Nile virus [20] came out at 94 µM.
As for `OC[C@H]1O[C@@H](n2cnc3c(NCc4ccc(C#Cc5ccccc5)cc4)ncnc32)[C@H](O)[C@@H]1O`, the CC50 at 168 h in series [1] and in [5] was over 50 µM throughout. Also, the EC50 in the series on Yellow fever virus was determined as 33 µM; in the series with West Nile virus [3], 9.7 µM; in [6] it was 36.6 µM.
Consider `OC[C@H]1O[C@@H](n2cnc3c(NCc4ccc(C#Cc5cc(C(F)(F)F)cc(C(F)(F)F)c5)cc4)ncnc32)[C@H](O)[C@@H]1O`, for which the 50% cytotoxic concentration (CC50) at 168 h in series [1] was 15.7 µM; in series [5], 8.1 µM. Also, the results for the EC50 (with Yellow fever virus; in the series with West Nile virus [3]; in [6]) were 5.6 µM, 1.5 µM and 2.2 µM, respectively.
`OC[C@H]1O[C@@H](n2cnc3c(NCc4ccc(-c5ccccc5)cc4)ncnc32)[C@H](O)[C@@H]1O`: the CC50 at 168 h in series [1] and in [5] was over 50 µM each time. In addition, the results for the 50% effective concentration (EC50) (in the series with Yellow fever virus; with West Nile virus [3]; in series [6]) were over 50 µM, 13 µM and over 50 µM, respectively. Moreover, the CC50 at 24 h in [2] and in [4] was over 50 µM each time.
Turning to `OC[C@H]1O[C@@H](n2cnc3c(NCc4ccc(-c5ccc(C(F)(F)F)cc5)cc4)ncnc32)[C@H](O)[C@@H]1O`, the CC50 at 168 h came out at 28.5 µM in [1] and 26 µM in [5]. The concentration giving a half-maximal response (EC50) in the series on Yellow fever virus turned out to be 27 µM; with West Nile virus [3], 8.3 µM; in series [6], 4.7 µM.
Consider `OC[C@H]1O[C@@H](n2cnc3c(NCc4ccc(C(F)(F)F)cc4)ncnc32)[C@H](O)[C@@H]1O`, for which the CC50 at 168 h in [1] and in series [5] was over 50 µM throughout. In addition, the EC50 is over 50 µM in the series on Yellow fever virus, 7 µM in the series on West Nile virus [3] and over 50 µM in [6].
In the case of `OC[C@H]1O[C@@H](n2cnc3c(NCc4ccc(C#CC5CCCC5)cc4)ncnc32)[C@H](O)[C@@H]1O`, the CC50 at 168 h in series [1] was determined as 38 µM; in [5], 37 µM. The EC50 in the series on Yellow fever virus stood at 17.8 µM; in the series on West Nile virus [3] it was 18 µM; in series [6], 8 µM.
For `C[C@@]1(O)[C@H](O)[C@@H](CO)O[C@H]1n1ccc2c(N)ncnc21` [BETA-2'-C-METHYL-7-DEAZA-ADENOSINE], in series [8], the EC50 came out at 5.1 µM.
For `OC[C@H]1O[C@@H](n2cnc3c(NCc4ccccc4C(F)(F)F)ncnc32)[C@H](O)[C@@H]1O`, the CC50 at 168 h in [1] and in series [5] was over 50 µM in each case. Further, the EC50 in the series with Yellow fever virus was over 50 µM; in the series with West Nile virus [3] it was 7.7 µM; in [6], over 50 µM.
Consider `C#C[C@@]1(O)[C@H](O)[C@@H](CO)O[C@H]1n1ccc2c(N)ncnc21`, for which, in [21], the EC50 amounted to 0.2 µM.
Regarding `C[C@@]1(O)[C@H](O)[C@@H](CO)O[C@H]1n1ccc(N)nc1=O`, the EC50 in series [8] was found to be 14.2 µM.
On to `OC[C@H]1O[C@@H](n2cnc3c(NCc4cccc(C(F)(F)F)c4)ncnc32)[C@H](O)[C@@H]1O`, for which the CC50 at 168 h in series [1] and in series [5] was over 50 µM throughout. Moreover, the EC50 in the series on Yellow fever virus was over 50 µM; in the series with West Nile virus [3] it was 8 µM; in series [6], over 50 µM. In [7], this molecule had a CC50 of over 235 µM.

The term CC50 denotes the concentration giving 50% cytotoxicity. The EC50 is the concentration needed to bring the measured effect to its halfway point.
